Reference: EP2319515A1, “COCCIDICIDE COMBINATION FOR VETERINARY USE” (Laboratorio Avi-Mex, S.A. De C.V., priority 2008, dated 2010)

Tested on: Eimeria tenella sporocytes
Experiment: in vitro comparative trials for effectiveness: chicken fibroblasts infected with E. tenella sporocytes
Format: cell-based
Details: 24 hours of incubation; for cells quantified in 9 fields, X (±SD): CS-3 chicken fibroblasts + E. tenella sporocytes (about 3 per cell), microscope 40 X; for cells quantified in 9 fields, Means mean (±SD): mean of replications A to C, CS-3 chicken fibroblasts + E. tenella sporocytes

Cc1cc(-n2c(=O)[nH]c(=O)n(C)c2=O)ccc1Oc1ccc(SC(F)(F)F)cc1 [Example 2]
cells quantified in 9 fields, X (±SD) (Replication A): 999 (12) | cells quantified in 9 fields, X (±SD) (Replication B): 899 (8) | cells quantified in 9 fields, X (±SD) (Replication C): 789 (6) | cells quantified in 9 fields, Means mean (±SD): 895 (105)

CO[C@@H]1[C@@H](OC)[C@H](C)[C@@](O)(CC(=O)O)O[C@H]1[C@H](C)[C@H]1O[C@@]2(CC[C@@](C)([C@H]3CC[C@@](C)([C@@H]4O[C@@H]([C@H]5O[C@](C)(O)[C@H](C)C[C@@H]5C)C[C@@H]4O[C@@H]4C[C@H](OC)[C@@H](OC)[C@H](C)O4)O3)O2)C[C@H](O)[C@H]1C [Example 1, Maduramicine]
cells quantified in 9 fields, X (±SD) (Replication A): 268 (29) | cells quantified in 9 fields, X (±SD) (Replication B): 156 (35) | cells quantified in 9 fields, X (±SD) (Replication C): 239 (21) | cells quantified in 9 fields, Means mean (±SD): 221 (58)
